Counter-ions that a name gives are not always drawn. Like-named read-outs stand apart in the source and are kept apart here.
What was measured:
Rat PK evaluation = assay type: in vivo; conditions: plasma, SD rats; for bioavailability: n=3, read-out: F % (absolute bioavailability); for clearance: n=3, read-out: Cl_obs iv (clearance rate) (converted); for Vd: n=3, read-out: Vz_obs iv (apparent volume of distribution); for Tmax: n=3, median, read-out: Tmax po (time of maximum observed plasma concentration)
Experimental: Animal Administration and Sample Collection:
The study compounds A1, A6, A32, A41 and A42 were each dissolved in normal saline to prepare solutions. The solutions of the compounds were separately administered to SD rats by intragastric administration at a dose of 5.0 mg/kg. Time points for blood collection were 15 min, 30 min, 1 h, 2 h, 4 h, 6 h, 8 h and 24 h.
The study compounds A1, A6, A32, A41 and A42 were each dissolved in normal saline to prepare solutions. The solutions of the compounds were separately administered to SD rats by intravenous push at a dose of 1.0 mg/kg. Time points for blood collection were 5 min, 15 min, 30 min, 1 h, 2 h, 4 h, 6 h, 8 h and 24 h.
Venous catheterization was performed the day before the administration. Subsequent to the administration, about 300 μL of blood was collected from the jugular vein and put into anticoagulation tubes containing EDTA-K2. Preparation was performed within 30 min after the blood collection. Plasma samples were obtained by centrifugation at 8,000 rpm for 6 min at 4° C., and were stored in a −80° C. refrigerator before plasma testing.
(1) the samples to be tested were taken out of the −80° C. refrigerator, naturally thawed at room temperature and then swirled for 5 min;
(2) 20 μL of plasma sample was accurately pipetted into a 1.5 mL centrifuge tube;
(3) 200 μL of internal standard working solution (solution of tolbutamide in methanol) with a concentration of 100 ng/mL was added, and uniform mixing was performed;
(4) after 5 min of swirling, centrifugation was performed at 12,000 rpm for 5 min;
(5) 50 μL of supernate was accurately pipetted into a 96-well plate added with 150 μL water/well in advance;
(6) uniform mixing was performed by swirling for 5 min, followed by LC-MS/MS assay.
Analyst 1.6.3 from AB Sciex was used to output concentration results of tested compounds. Microsoft Excel was used to calculate parameters such as mean value, standard deviation and variation coefficient (excluding those outputted directly by Analyst 1.6.3). Pharsight Phoenix 6.1 software NCA was adopted to calculate PK parameters (Tmax was median).

MAO-A = molecular target: T1, MAO-A (Homo sapiens, UniProt P21397); experiment: Selectivity against MAO-A enzyme (MAO-Glo); assay type: biochemical
T1 construct: purchased Active Motif
T1 sequence (P21397 1-527): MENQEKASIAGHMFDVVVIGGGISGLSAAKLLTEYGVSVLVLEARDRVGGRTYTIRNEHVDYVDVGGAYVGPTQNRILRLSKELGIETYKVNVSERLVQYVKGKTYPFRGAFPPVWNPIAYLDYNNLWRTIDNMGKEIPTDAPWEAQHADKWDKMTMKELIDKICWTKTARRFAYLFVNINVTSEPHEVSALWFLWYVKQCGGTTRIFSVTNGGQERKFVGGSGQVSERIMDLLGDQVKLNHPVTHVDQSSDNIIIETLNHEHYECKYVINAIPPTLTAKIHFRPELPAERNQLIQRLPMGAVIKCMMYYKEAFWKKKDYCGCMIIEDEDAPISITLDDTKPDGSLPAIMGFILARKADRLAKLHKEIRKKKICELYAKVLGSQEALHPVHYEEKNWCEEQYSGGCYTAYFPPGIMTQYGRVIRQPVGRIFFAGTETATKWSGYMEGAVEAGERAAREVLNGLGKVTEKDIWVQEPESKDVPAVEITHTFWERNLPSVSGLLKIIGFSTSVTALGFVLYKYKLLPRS
Experimental: (1) Instrument, Consumable and Reagent
Microplate reader (Perkin Elmer, EnVision), 384-well plate (Perkin Elmer), centrifuge (Eppendorf), MAO-Glo™ (Promega), MAO-A (Active Motif) and MAO-B (Active Motif).
(2) Preparation of Concentration Gradient Compound Solutions
An appropriate amount of the compound to be tested was taken, dissolved in DMSO to 10 mM and then stored. The solution was then gradiently diluted 4-fold with DMSO, 6 concentration gradients in total.
(3) Preparation of Enzyme Solutions
MAO-A/B mother liquor was diluted with the experimental buffer for MAO-A/B to obtain enzyme solutions of 2× concentrations.
(4) Preparation of Substrate Mixtures of 2× Concentrations
The mother liquor of MAO-A/B substrate mixture was diluted with the experimental buffer for MAO-A/B to obtain substrate mixtures of 2× concentrations.
200 nL compound solutions or solvents of different concentrations and 10 μL MAO-A/B enzyme solutions of 2× concentrations were added into a 384-well plate, centrifuged at 1,000 rpm for 60 s, shaken to be mixed uniformly and then incubated at room temperature for 15 min. 10 μL substrate mixtures of 2× concentrations were then added into each well, and reaction was initiated. The 384-well plate was centrifuged at 1,000 rpm for 60 s, shaken for a uniform mixing and then incubated at room temperature for 60 min. 20 μL of test stop solution was added to stop reaction. Centrifugation was performed at 1,000 rpm for 60 s, and shaking was performed for uniform mixing. After 30 min of standing, the microplate reader was used to perform reading.
The inhibition rate was calculated according to the following formula: Inhibition rate (%)=(Signal_Max-Signal_sample)/(Signal_Max-Signal_min)×100 (6) Fitting of Dose-Response Curve
With the log value of concentration as the X axis and the percent inhibition rate as the Y axis, the log (inhibitor) vs. response-variable slope of analysis software GraphPad Prism 5 was used to fit a dose-response curve, thus obtaining the IC50 value of activity of each compound against the enzyme.

[1] = IV 1 mg/kg, n=3, read-out: AUCinf iv (area under plasma concentration-time curve 0-∞)
[2] = IV 1 mg/kg, n=3, read-out: tz1/2 iv (terminal half-life) (converted)
[3] = PO 5 mg/kg, n=3, read-out: AUCinf po (area under plasma concentration-time curve 0-∞)
[4] = PO 5 mg/kg, n=3, read-out: tz1/2 po (terminal half-life) (converted)

Compound | bioavailability (Rat PK evaluation; IV 1 mg/kg, PO 5 mg/kg) [%] | AUC(0-inf) (Rat PK evaluation; [1]) [µg·h/mL] | clearance (Rat PK evaluation; IV 1 mg/kg) [L/h/kg] | Vd (Rat PK evaluation; IV 1 mg/kg) [L/kg] | half-life (Rat PK evaluation; [2]) [min] | Tmax (Rat PK evaluation; PO 5 mg/kg) [min] | AUC(0-inf) (Rat PK evaluation; [3]) [µg·h/mL] | half-life (Rat PK evaluation; [4]) [min] | IC50 (MAO-A) [µM]
Cl.NC/C(=C\F)Cn1cc2c(c1Cl)CCN(C1CC1)C2=O [Compound A42 hydrochloride, (E)-2-(2-(aminomethyl)-3-fluoroallyl)-1-chloro-5-cyclopropyl-2,5,6,7-tetrahydro-4H-pyrrolo[3,4-c]pyridin-4-one] | 151 | 0.591 | 1.77 | 1.29 | 31.8 | 60 | 4.48 | 79.8 | 47.6
NC/C(=C\F)Cn1c(Br)c2c(c1Br)C(=O)N(C1CC1)CC2 [Compound A33 hydrochloride, (E)-2-(2-(aminomethyl)-3-fluoroallyl)-1,3-dibromo-5-cyclopropyl-2,5,6,7-tetrahydro-4H-pyrrolo[3,4-c]pyridin-4-one] | – | – | – | – | – | – | – | – | 55.9
NC/C(=C\F)Cn1ncc2c1CCN(C1CC1)C2=O [Compound A2 hydrochloride, (E)-1-(2-(aminomethyl)-3-fluoroallyl)-5-cyclopropyl-1,5,6,7-tetrahydro-4H-pyrazolo[4,3-c]pyridin-4-one] | – | – | – | – | – | – | – | – | > 100
NC/C(=C\F)Cn1cc2c(=O)n(C3CC3)ccc2n1 [Compound A41, (E)-2-(2-(aminomethyl)-3-fluoroallyl)-5-cyclopropyl-2,5-dihydro-4H-pyrazolo[4,3-c]pyridin-4-one] | 61.9 | 0.531 | 1.89 | 1.53 | 33.6 | 60 | 1.64 | 107 | > 100
CNC(=O)c1cnn(C/C(=C/F)CN)c1 [Compound B1, (E)-1-(2-(aminomethyl)-3-fluoroallyl)-N-methyl-1H-pyrazole-4-carboxamide] | – | – | – | – | – | – | – | – | > 100
CC(C)(C)N1CCc2nn(C/C(=C/F)CN)cc2C1=O [Compound A7 hydrochloride, (E)-2-(2-(aminomethyl)-3-fluoroallyl)-5-tert-butyl-2,5,6,7-tetrahydro-4H-pyrazolo[4,3-c]pyridin-4-one] | – | – | – | – | – | – | – | – | > 100
CCn1ccc2c(cnn2C/C(=C/F)CN)c1=O [Compound A29 hydrochloride, (E)-1-(2-(aminomethyl)-3-fluoroallyl)-5-ethyl-1,5-dihydro-4H-pyrazolo[4,3-c]pyridin-4-one] | – | – | – | – | – | – | – | – | 87.7
CCN1CCc2nn(C/C(=C/F)CN)cc2C1=O [Compound A6 hydrochloride, (E)-2-(2-(aminomethyl)-3-fluoroallyl)-5-ethyl-2,5,6,7-tetrahydro-4H-pyrazolo[4,3-c]pyridin-4-one] | 76.3 | 0.445 | 2.27 | 2.38 | 43.8 | 30 | 1.7 | 65.4 | 89.1
CCn1ccc2nn(C/C(=C/F)CN)cc2c1=O [Compound A28 hydrochloride, (E)-2-(2-(aminomethyl)-3-fluoroallyl)-5-ethyl-2,5-dihydro-4H-pyrazolo[4,3-c]pyridin-4-one] | – | – | – | – | – | – | – | – | > 100

Other lines, results leading:

bioavailability (Rat PK evaluation; IV 1 mg/kg, PO 5 mg/kg) [%] | AUC(0-inf) (Rat PK evaluation; [1]) [µg·h/mL] | clearance (Rat PK evaluation; IV 1 mg/kg) [L/h/kg] | Vd (Rat PK evaluation; IV 1 mg/kg) [L/kg] | half-life (Rat PK evaluation; [2]) [min] | Tmax (Rat PK evaluation; PO 5 mg/kg) [min] | AUC(0-inf) (Rat PK evaluation; [3]) [µg·h/mL] | half-life (Rat PK evaluation; [4]) [min] | IC50 (MAO-A) [µM] | Compound
87 | 0.545 | 1.85 | 2.31 | 52.2 | 120 | 2.37 | 70.2 | – | NC/C(=C\F)Cn1cc2c(n1)CCN(C1CC1)C2=O [Compound A1, (E)-2-(2-(aminomethyl)-3-fluoroallyl)-5-cyclopropyl-2,5,6,7-tetrahydro-4H-pyrazolo[4,3-c]pyridin-4-one]
– | – | – | – | – | – | – | – | 8.81 | Cc1c2c(cn1C/C(=C/F)CN)C(=O)N(C1CC1)CC2 [Compound A35 hydrochloride, (E)-2-(2-(aminomethyl)-3-fluoroallyl)-5-cyclopropyl-1-methyl-2,5,6,7-tetrahydro-4H-pyrrolo[3,4-c]pyridin-4-one]
– | – | – | – | – | – | – | – | > 100 | CCN1CCc2cn(C/C(=C/F)CN)cc2C1=O [Compound A25, (E)-2-(2-(aminomethyl)-3-fluoroallyl)-5-ethyl-2,5,6,7-tetrahydro-4H-pyrrolo[3,4-c]pyridin-4-one]
173 | 0.572 | 1.75 | 1.2 | 28.8 | 15 | 4.95 | 45 | 61 | Cl.NC/C(=C\F)Cn1cc2c(c1Br)CCN(C1CC1)C2=O [Compound A32 hydrochloride, (E)-2-(2-(aminomethyl)-3-fluoroallyl)-1-bromo-5-cyclopropyl-2,5,6,7-tetrahydro-4H-pyrrolo[3,4-c]pyridin-4-one]
– | – | – | – | – | – | – | – | > 100 | NC/C(=C\F)Cn1cc2c(c1)C(=O)N(C1CC1)CC2 [Compound A22, (E)-2-(2-(aminomethyl)-3-fluoroallyl)-5-cyclopropyl-2,5,6,7-tetrahydro-4H-pyrrolo[3,4-c]pyridin-4-one]

Reference: patent US12371432B2, “Haloallylamine compounds and application thereof” (TransThera Sciences (Nanjing), Inc., priority 2019, dated 2025)
